Source: US20160281089A1, “PREVENTION OF VIRAL INFECTIVITY” (priority 2005, published 2016)

Tests used:
[1] = biological target: T1, recombinant M-MuLV RT/RNase H (Moloney murine leukemia virus, UniProt P03355); assay: In vitro cleavage of synthetic SFFV PPT-RNA with recombinant M-MuLV RT/RNase H; format: biochemical; conditions: 5'-end-labelled RNA
T1 construct: The 80 kDa RT/RNase H of M-MuLV is a monomer
Excerpt: To test, whether ODN M would have similar effects as ODN A, we tested the ability of ODN M to induce cleavage of SFFV RNA in the presence of the recombinant M-MuLV RT/RNase H. We used synthetic 5′-end-labelled RNA, which contains the extended PPT of SFFV and sequences of the viral genome dose to the PPT. […] M-MuLV RT/RNase H induced ODN M-mediated cleavage in a dose-dependent manner (FIG. 8b left). The cleavage induced by the various ODNs leads to degradation of the SFFV PPT-RNA in vitro as shown (FIG. 8b right). […] We concluded that SFFV could serve as model for HIV.
a. 5′-labeled synthetic PPT-RNAs of SFFV (left) and HIV-1 (right) were annealed and cleaved with recombinant M-MuLV or HIV-1 RT/RNase H in the absence or presence of ODN M or ODN A. Cleavage products were analyzed by 8M urea-containing PAGE (6%). Filled arrowheads correspond to the specific RT/RNase H cleavage sites, open arrowheads to additional cleavage sites. RNase T1-digested RNA (RNase T1) served as marker. M indicates the Decade Marker.
b. Titration of recombinant M-MuLV RT/RNase H in the presence of ODN M (50 nM) and 5′-labeled SFFV-PPT-RNA. […] 5′-labeled SFFV-PPT-RNA or control RNA without PPT (Con.) were hybridized with the ODNs and treated with and without MuLV RT/RNase H for in vitro cleavage as indicated and analyzed by 8M urea-containing PAGE (10%, right).

SFFV virions = assay: Permeabilized cell-free SFFV virions incubated with ODNs, undigested RNA by real-time PCR; format: biochemical; conditions: 5 μM ODN, compared to control ODNs or asPPT
Procedure: In order to further characterize antiviral effects of ODNs, we tested ODN M, asPPT and structural analogs of ODN M in SFFV virions, which contain endogenous RT/RNase H and have an appropriate secondary structure of the RNA. Permeabilized virions were incubated with ODNs, viral RNA was then purified, reverse transcribed and the amount of undigested RNA was quantified by real-time PCR using a set of primers harboring the PPT region of the SFFV genome. […] We observed differences in the antiviral activities between various ODNs. […] Thus, the presence as well as the sequences of both strands of the ODN contributed to the antiviral effect. We noticed previously that the second arm of the ODN is more important intracellularly than in vitro.
a. Cell-free SFFV virions (1×10^3 FFU in 20 μl) were permeabilized and incubated with the indicated ODNs (5 μM). RNA was extracted three days post-treatment and analyzed by quantitative real-time RT-PCR shown as bars (top) and RT-PCR shown as amplifications products on a 1.5% agarose gel (bottom).

SFFV [2] = assay: NIH 3T3 cells infected with SFFV for 2 h and then treated; format: cell-based; conditions: treatment 2 h after infection, three concentrations, no carrier, three days post-infection
Procedure: In the next experiment NIH 3T3 cells were infected with SFFV for 2 h and then treated with three different concentrations each of ODN M, asPPT, and three different siRNAs.
c. NIH-3T3 cells were infected with SFFV for 2 hours and then treated with three decreasing concentrations of ODN M, asPPT and three different PPT-specific siRNAs. RNA was isolated from supernatants three days post-infection and analyzed by real time RT-PCR.

SFFV [3] = assay: Survival of SFFV-infected DBA/2 mice treated with ODN M at times 0 and 1 hour; format: in vivo; conditions: ODN M 1 mg at 0 and 1 hour, i.p.
Procedure: We also monitored survival of SFFV-infected mice treated with and without ODN M at times 0 and 1 hour, in this case DBA/2 mice and by i.p. route (FIG. 11b).
Five mice each received 300 μl SFFV (1:100) i.p. supplemented with or without ODN M and 1 h later a second dose of ODN M (1 mg each). Survival was monitored until day 68. The spleen weights at death are indicated as numbers on the graph.

RT/RNaseH = RT/RNaseH (Human immunodeficiency virus type 1 group M subtype B, UniProt P04585); assay: RNase H cleavage assay with synthetic 5'-end-labelled RNA and RT/RNaseH; format: biochemical, HIV-1; design: the HIV RT/RNase H is a heterodimer of p66 and p51 with and without RNase H; conditions: for RT/RNaseH cleavage of RNA2 (contains extended PPT): 10 nM 5'-labelled RNA2
Excerpt: We used synthetic 5′-end-labelled RNA2, which contains the extended PPT and sequences of the viral genome close to the PPT. […] For the present study we used low concentrations of the ODNs.
To test whether an ODN-mediated activity would preferentially occur at the PPT, we analysed ODNs targeted to the extended PPT (ODN A) or to a region outside of the PPT (ODN CO and an external antisense oligodeoxynucleotide asEXT) in vitro. We used RNA2, which contains the PPT and the binding sites for ODN A, asEXT and ODN CO. […] Indeed, in the reaction mixture containing both ODN A and asEXT primers, extension products, predominantly synthesized by the RT/RNaseH, started with ODN A and not asEXT (FIG. 2B). […] Thus, the ability of the ODN A to mediate RT/RNaseH-dependent cleavage of the viral RNA is PPT-dependent.
(A) Cleavage assay. 10 nM of in vitro transcribed 5′-labeled RNA was hybridized with 10, 100 and 1000 nM of ODN A and incubated in the presence of RT/RNaseH. The cleavage products were analyzed by denaturing PAGE as described in Materials and methods. (B). Primer extension assay. Synthetic RNA2 was hybridized with ODN A, antisense primer (asEXT) or both primers combined, and the primer extension was performed as described in Materials and Methods. Elongation products were analysed by 8 M urea/10% PAGE. (C) Cleavage assay. RNA/ODN hybrids, obtained using 10 nM of RNA2 and 10 nM of ODN A, asPPT or ODN CO were incubated with RT/RNaseH and cleavage products were analyzed by denaturing PAGE as described in Materials and methods. Cleavage or extension products are presented schematically to the right of each blot. Cleavage sites are indicated by arrows and labelled cleavage products are shown by black lines. Dots on extension products indicate the incorporated labelled dATPs.

| Sequence | cleavage of synthetic SFFV PPT-RNA [1] | amount of intact SFFV RNA in virions (antiviral activity) (SFFV virions) | antiviral effect, SFFV RNA in supernatants (SFFV [2]) | survival time (SFFV [3]) | number of treated mice with prolonged survival (SFFV [3]; DBA/2 mice) | survival of the surviving mice (SFFV [3]; untreated mice died after 20 to 30 days) | RT/RNaseH cleavage of RNA2 (contains extended PPT) (RT/RNaseH; 10 nM ODN) | cleavage of RNA2 compared to control ODN CO (RT/RNaseH; 10 nM RNA2, 10 nM ODN, FIG. 2C) | cleavage of RNA2 compared to single-stranded asPPT (RT/RNaseH; 10 nM RNA2, 10 nM ODN, FIG. 2C) | RT/RNaseH cleavage of RNA2 (contains extended PPT) (RT/RNaseH; 1 μM ODN) | ODN-mediated cleavage of RNA3 (no PPT sequence) (RT/RNaseH; RNA3 without PPT) |
| --- | --- | --- | --- | --- | --- | --- | --- | --- | --- | --- | --- |
| TCTTTTTGGGGGGTTTGTTTGTTTTTTCTTTCATTCCCCCCTTTTTCT (chemistry not given here) [ODN M, 22-mer antisense and 22-mer second strand connected by T4, targeted to extended PPT of SFFV] | cleaved | strongest effect | slightly superior to the asPPT but much stronger compared to siRNA | almost doubled | Two out of five | more than 60 days |  |  |  |  |  |
| TTTTCTTTTGGGGGGTTTGGTTGGGTTTTCCCTTCCAGTCCCCCCTTTTCTTTT (phosphorothioate linkages, further chemistry not given here) [ODN A, 25 mer antisense and 25 mer passenger strand connected by T4, phosphorothioated at each end and in linker, targeted to extended PPT of HIV-1] |  |  |  |  |  |  | cleaved | more efficient cleavage | slightly stronger | not | not affected |
